Columns and labels:
CaV2.2 = conditions: cited from earlier work
[1] = system: N-type calcium channels (CaV2.2); format: cell-based; conditions: pH 7.4
Swiss Webster mice = conditions: mouse, in vivo

ω-conotoxin GVIA
affinity for CaV2.2, in words (CaV2.2): high affinity
percentage block of N-current [1]: 98.5 ± 1.0 percentage
behavior after injection (Swiss Webster mice): shaking syndrome
behavior at higher concentrations (Swiss Webster mice): passive behavior with a backwards leg-extension
duration of shaking behavior (Swiss Webster mice): lasted for more than a day

From publication PMC2867246 (Biochemistry, 2010)
